Reference: ChEMBL document CHEMBL3885861, “Open TG-GATES”

Species: Rattus norvegicus
Assay: Open TG-GATES - Regimen: Single
Type: toxicity, organism-based, Sprague-Dawley
Parameters: regimen Single, gender Male, age 6 weeks
Conditions: in vivo, po, 10 mg/kg, route gavage, dose level Low; for APTT / Bas / Eos / Fbg / Hb / Ht / Lym / MCH / MCHC / MCV / Mono / Neu / PT / Plat / RBC / Ret / WBC: tissue Blood; for KIDNEY_L / KIDNEY_R / KIDNEY_TOTAL: tissue Kidney; for LIVER: tissue Liver; for A/G / ALP / ALT / AST / BUN / CRE / Ca / Cl / DBIL / GLC / IP / K / LDH / Na / PL / RALB / TBIL / TC / TG / TP / gamma-GTP: tissue Plasma

## OCCOCCN1CCN(C(c2ccccc2)c2ccc(Cl)cc2)CC1 (stereo unspecified) [HYDROXYZINE]
9 h
  TERMINAL_BW: 190.5 g
  APTT: 16.2 s
  Bas: 0%
  Eos: 0.4%
  Fbg: 288.8 mg/dL
  Hb: 12.8 g/dL
  Ht: 39.6%
  Lym: 71.2%
  MCH: 21.3 pg
  MCHC: 32.3%
  MCV: 65.7 fL
  Mono: 3%
  Neu: 24%
  PT: 15.2 s
  Plat: 118.3 x10_4/uL
  RBC: 601.8 x10_4/ul
  Ret: 8.2%
  WBC: 63.8 x10_2/uL
  KIDNEY_L: 0.9 g
  KIDNEY_R: 0.8 g
  KIDNEY_TOTAL: 1.7 g
  LIVER: 7.9 g
  A/G: 0.8
  ALP: 1271.4 IU/L
  ALT: 37.4 IU/L
  AST: 70.2 IU/L
  BUN: 9.2 mg/dL
  CRE: 0.2 mg/dL
  Ca: 10.7 mg/dL
  Cl: 106.8 meq/L
  DBIL: 0.012 mg/dL
  GLC: 184.6 mg/dL
  IP: 10.2 mg/dL
  K: 4.1 meq/L
  LDH: 78.8 IU/L
  Na: 142.4 meq/L
  PL: 139.4 mg/dL
  RALB: 2.5 g/dL
  TBIL: 0.062 mg/dL
  TC: 81.4 mg/dL
  TG: 29.4 mg/dL
  TP: 5.5 g/dL
  gamma-GTP: 1 IU/L
24 h
  TERMINAL_BW: 210.3 g
  APTT: 15 s
  Bas: 0%
  Eos: 1%
  Fbg: 276.8 mg/dL
  Hb: 12.7 g/dL
  Ht: 39.6%
  Lym: 73.4%
  MCH: 21.9 pg
  MCHC: 32%
  MCV: 68.5 fL
  Mono: 2.8%
  Neu: 22.6%
  PT: 16 s
  Plat: 121.3 x10_4/uL
  RBC: 578.6 x10_4/ul
  Ret: 8.8%
  WBC: 79 x10_2/uL
  KIDNEY_L: 0.9 g
  KIDNEY_R: 0.9 g
  KIDNEY_TOTAL: 1.8 g
  LIVER: 10.1 g
  A/G: 0.9
  ALP: 1714.2 IU/L
  ALT: 45.2 IU/L
  AST: 71.4 IU/L
  BUN: 14.2 mg/dL
  CRE: 0.2 mg/dL
  Ca: 11.4 mg/dL
  Cl: 106 meq/L
  DBIL: 0.02 mg/dL
  GLC: 177.6 mg/dL
  IP: 8.2 mg/dL
  K: 4.3 meq/L
  LDH: 104.2 IU/L
  Na: 142.8 meq/L
  PL: 147.4 mg/dL
  RALB: 2.6 g/dL
  TBIL: 0.058 mg/dL
  TC: 77.2 mg/dL
  TG: 69.4 mg/dL
  TP: 5.6 g/dL
  gamma-GTP: 1 IU/L
